Assay results from US20250090626A1, “NEW PEPTIDE AND USES THEREOF” (Neo Cremar Co., Ltd., priority 2021, published 2025).

Experiments:
Format in all cases: cell-based, mouse
[1] = tested on: C2C12 cells; test: Myodifferentiation, Giemsa staining, root canal formation and fusion index
Method: When C2C12 cells were 70% grown, media were replaced with myodifferentiation medium added with MSTN protein (1 ng), Ac-MIF1 (1000 nM), and Ac-MIF1 (1000 nM)+MSTN protein (1 ng) from proliferation medium, followed by culture for 3 days.
When the cells grew more than 70% for differentiation of myoblasts into myocytes, they were cultured for 3 days by replacing with a differentiation medium (DMEM+2% FBS+1% P/S). The medium was replaced once daily, and the cells were cultured at 37° C.
The cell medium was removed, and the cells were washed with PBS. After washing, a methanol:PBS reagent in a 1:1 volume ratio was treated, followed by fixation for 2 minutes. Additionally, after a methanol:PBS reagent in a 2:1 volume ratio was added, fixation was followed for additional 2 minutes. After 2 minutes, 0.04% Giemsa reagent was added, and then the cells were left for 30 minutes, washed with PBS after 30 minutes, and observed under a microscope, with 3 photographs taken for each cell (300×). In the photographs taken, the number of fused nuclei in the root canal cells was counted, the number of nuclei of total cells was counted, and the number of fused nuclei was divided by the number of nuclei of the total cells to obtain the % value.

[2] = tested on: C2C12 cells; test: C2C12 cell proliferation (MTT method)
Method: C2C12 cells, a mouse myoblast line, were cultured in Dulbecco's Modified Eagle's Medium (DMEM)+10% fetal bovine serum (FBS)+1% penicillin/streptomycin (P/S). To validate the effect of MIF peptide, C2C12 cells (2×10^3 cells/ml) were placed in a 12 well cell culture dish and attached for 24 hours, and MIF peptide (1000 nM) was treated for 1 day to observe cell proliferation by MTT method. The medium was replaced every 2 days, and the cells were cultured at 37° C.
To validate cell proliferation, the culture medium of the cells was removed, the cells were washed with DMEM, 500 μl of MTT reagent (0.5 mg/ml) dissolved in phosphate buffered saline (PBS) was added to each well, and the cells were left at 37° C. for 1 hour. The reaction solution was removed, and 1000 μl of DMSO was added to each well. Purple formazan crystals were completely dissolved in DMSO, and the absorbance was measured at 540 nm.

[3] = tested on: C2C12 cells; test: mRNA expression of myodifferentiation and sarcopenia factors (real-time PCR); conditions: C2C12 myodifferentiation, peptide-treated vs untreated
Method: After adding 1 ml of TRIzol™ reagent, the cells were crushed using a sonicator. After centrifugation of the crushed sample (12,000 rpm, 10 min, 4° C.), the supernatant was transferred to a new tube, added with 200 μl of chloroform, and left at room temperature for 10 minutes. After 10 minutes, centrifugation (12,000 rpm, 10 min, 4° C.) was performed, yielded a transparent supernatant. Next, 500 μl of isopropanol was added, the mixture was left for 10 minutes, and centrifugation was performed to obtain RNA pellets. After washing by adding 70% ethanol (distilled water treated with ethanol+diethylpyrocarbonate (hereinafter referred to as DEPC)) to the RNA pellets, complete removal and drying were followed. The dried transparent RNA was added with DEPC-treated distilled water and then stored at −80° C. Total RNA volume was measured by nanodrop, and the 18s and 28s bands were detected in 1.2% agarose gel. cDNA was synthesized with 2 μg of total RNA, random hexamer primers, and reverse transcriptase (25° C.: 10 min, 37° C.: 120 min, 85° C.: 5 min).
Real-time PCR (RT-PCR) was performed for detecting gene expression. For observation of real-time gene expression, gene expression was analyzed using the Power SYBR Green PCR Master Mix, which includes fluorescent materials of SYBR green (7500 Real-time PCR system). The PCR primer was designed with Primer 3 software (http://frodo.wi.mit.edu) according to the nucleotide sequence secured from NCBI GenBank. PCR was performed 40 times at 95° C. for 10 minutes, again at 95° C. for 33 seconds, at gene primer temperature (tm) for 33 seconds, and at 72° C. for 33 seconds. Gene expression values were analyzed through the analysis of c(t) values obtained through real-time PCR analysis (fold change 2-^ΔΔCt formula). Setting the gene expression value of the untreated cells to 1, the gene expression value of the treated cells was calculated. In the analysis of gene c(t) values, normalization was conducted with the glyceraldehyde-3-phosphate dehydrogenase (GAPDH).

[4] = tested on: C2C12 cells; test: Protein expression of myodifferentiation and sarcopenia factors (Western blot, immunocytochemistry); conditions: C2C12 myodifferentiation, peptide-treated vs untreated
Method: The medium of cultured C2C12 cells was removed and washed once with PBS. The washed cells were treated with 4% formaldehyde (Sigma), fixed for 15 minutes, then washed using PBS, added with 0.2% trypton X-100 (Sigma), and left for 5 minutes. After washing again using PBS, adding 1% normal goat serum, and leaving for 30 minutes, the primary antibody (MYOD, myogenin (MYOG):myosin light chain (MYL2); 1:50) was added to carry out a reaction at 4° C. for 14 hours. The antibodies were removed, washing was performed 3 times with PBS for 10 minutes, and then the cells were left with secondary antibody (Alexa Fluor 488 goat anti-Mouse & rabbit SFX kit t) for 1 hour. After 1 hour, the antibodies were removed, washing was performed with PBS for 10 minutes, the nuclei were stained with 4′,6-diamidino-2-phenylindol (DAPI), and the expression of the proteins was observed using fluorescence microscopy.
(1) The medium of cultured C2C12 cells was removed, followed by washing with PBS. After adding LIPA buffer and protease inhibitor to the washed cells, the proteins included in the supernatant were collected after centrifugation for 10 minutes at 12000 rpm. 40 μg of the extracted proteins were subjected to electrophoresis in 8 to 10% acrylamide gel and then transferred to a polyvinylidene fluoride (PVDF) membrane (Milipore). These were blocked with 3% skim milk or bovine serum albumin (BSA) at room temperature for 1 hour. Afterwards, primary antibody diluted in 1% skim milk or BSA (Pax7; 1:500, MYOD; 1:500, MYOG; 1:400, MYL2; 1:1000, MYH; 1:500, MSTN; 1:1000, β-actin; 1:1000, MuRF1; 1:400, and Atrogin; 1:1:400) was added and reacted at 4° C. for over 16 hours. After 16 hours, cells were washed three times with TBST (Tris-buffered saline with Tween 20) and reacted with secondary antibody with horseradish peroxidase (HRP) conjugated at room temperature for 1 hour. It was washed three times with TBST and developed after adding Super Signal West Pico Chemiluminescent Substrate.

[5] = tested on: C2C12 cells; test: Scratch experiment, degree of cell recovery; conditions: C2C12, 1000 nM peptide, 1 day in proliferation medium
Method: When the C2C12 cells were 100% grown, cells were scratches on the surface, treated with 1000 nM MIF1 or Ac-MIF1 peptides, and cultured for 1 day, followed by observation for a degree of cell recovery.

## MSTN protein: myostatin protein that inhibits the proliferation and differentiation of myoblasts [reference compound]
[1]; C2C12, MSTN protein in differentiation medium, FIG. 3
  differentiation of cells compared to untreated cells: reduced
[1]; C2C12, differentiation medium, 3 days
  root canal formation compared to untreated cells: reduced
[2]; C2C12, MSTN protein in proliferation medium, FIG. 3
  proliferation of cells compared to untreated cells: reduced

## VDFEAFWDWG [MIF1]
[3]
  Atrogin1 mRNA expression: decreased
  MSTN mRNA expression: decreased
  MYH mRNA expression: increased
[4]
  MSTN protein expression: increased
  MYH protein expression: increased
  MYL2 protein expression: increased
  MYOD protein expression: increased
  MYOG protein expression: increased
  MuRF1 protein expression: decreased
[1]; C2C12, differentiation medium including peptide, 3 days
  fusion index, increase compared to untreated cells: 4%
[5]
  scratch recovery degree, increase compared to untreated cells: 22%
[2]; C2C12, peptide 1000 nM, 1 day, MTT, FIG. 4
  cell proliferation, increase compared to cells without peptide treatment: 11%
